Values joined by “and” are separate entries in the source; they are usually repeats but may differ in a detail not shown here. Equal entries are not always repeated. Where two headings read alike, the source gives them in different places.
Key:
[1] = tested on: carrageenan-mediated locomotor hyperalgesia; assay type: in vivo
cannabinoid receptor CB2 = target: T1, cannabinoid receptor CB2 (Rattus norvegicus, UniProt Q9QZN9); experiment: Binding to cannabinoid receptor CB2, displacement of [3H]WIN55,212-2 on RBL-2H3 cell membranes; settings: read-out: Ki, CB2 receptor, RBL-2H3 + cells, [3H]WIN55,212-2 ligand
T1 construct: endogenous in cells; host or cells: RBL-2H3 rat basophilic leukaemia cells
T1 sequence (Q9QZN9 1-360): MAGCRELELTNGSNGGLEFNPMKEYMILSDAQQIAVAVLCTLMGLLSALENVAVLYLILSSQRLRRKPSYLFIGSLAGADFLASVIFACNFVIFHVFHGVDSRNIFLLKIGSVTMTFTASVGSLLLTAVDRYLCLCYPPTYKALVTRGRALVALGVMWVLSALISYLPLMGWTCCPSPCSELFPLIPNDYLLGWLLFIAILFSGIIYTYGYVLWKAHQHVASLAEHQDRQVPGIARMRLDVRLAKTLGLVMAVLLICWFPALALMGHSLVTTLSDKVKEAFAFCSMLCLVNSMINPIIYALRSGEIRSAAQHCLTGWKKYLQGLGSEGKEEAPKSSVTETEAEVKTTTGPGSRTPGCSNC
Description: (§1) Mouse neuroblastoma cells N18TG2 which selectively express the cannabinoid receptor CB1 and rat leukaemia basophil cells RBL-2H3+ which selectively express the cannabinoid receptor CB2 were used. The cells were cultured as described previously [L. Faci et al. (1995) Proc. Natl. Acad. Sci. U.S.A., 92: 3376-3380; T. Bisogno et al. (1997) J. Biol. Chem., 272: 3315-3323]. [^3H]SR141716A (55 Ci/mmol) was supplied by Amersham; [^3H]WIN55, 212-2(43 Ci/mmol) was supplied by NEN. The binding tests were carried out with membranes of the said cells resuspended in 50 mM pH 7.0 Tris buffer; 2.5 mM mgCl2; 0.8 mM EDTA; 0.05% bovine serum albumin (BSA); 0.01% ethanol and in the presence of 100 μM phenylmethylsulphonyl fluoride (PMSF; sigma) using 300 pM of [^3H]SR141716A and [^3H]WIN55,212-2, respectively, as ligand.
(§2) The membranes were incubated for 90 min at 30° C., filtered on glass microfibre filters (GFC-Whatman) and the radioactivity was measured by liquid scintillation. The specific binding was calculated using either 10 μM SR141716A or 10 μM HU-210 (obtained from Prof. R. Mechoulam, Hebrew University Jerusalem). The Ki values were calculated using the Chang-Prusoff equation and expressed as concentration μM.

EFM-19 cells [2] = experiment: Synergistic effect of PEA on antiproliferative activity in EFM-19 cells; assay type: cell-based, human; settings: for Proliferative activity %: control = 100
Description: (§3) Human breast carcinoma cells MCF-7, EFM-19 and T-47D were used. The cells were cultured and the tests were carried out as described previously [materials and methods L. De Petrocellis et al. (1998) Proc. Natl. Acad. Sci. U.S.A., 95: 8375-8380]. The activity with respect to the proliferation of the tumour cells was evaluated on the basis of the incorporation of [^3H]-thimidine. The results are expressed as IC50 in μM.
Human breast carcinoma cells EFM-19 were used. The test was carried out as indicated in Example C above.

DU-145 cells = experiment: Proliferation of human prostate carcinoma cells DU145 with prolactin, cell count; assay type: cell-based
Description: Human prostate carcinoma cells DU145 were used. The cells were cultured as described previously [materials and methods T. Janssen et al. (1996) Cancer, 77: 144-149].
The cells were then incubated in 96-well plates with Eagle's Minimal Essential Medium (MEM) supplemented with 10% foetal calf serum free of endogenous steroids. After 24 hours, the medium was removed and replaced with a medium containing prolactin (PRL) (1 mIU/ml of medium). The layer of cells was trypsinized and the cells were counted by haemocytometry.
The results are expressed as IC50 in μM.

[3] = Solubility (physicochemical properties of the product)
[4] = tested on: carrageenan-mediated oedema; experiment: Carrageenan-mediated oedema, paw volume; assay type: in vivo; settings: 5 mg/kg, oral, carrageenan = 100
Description: The method described previously [materials and methods S. Mazzari et al. (1996) Europ. J. Pharmacol., 300: 227-236] were used for the purpose of evaluating the effects of N-AVAM molecules on the hyperreactivity of sensitive nerve cells.
The test compounds were administered orally suspended in physiological saline densified with CMC. The results are expressed as a percentage of variation in the volume of the paw relative to carrageenan.

receptor CB1 = target: T2, receptor CB1 (Mus musculus, UniProt P47746); experiment: Effect on stimulation of cyclic AMP by forskolin in N18TG2 cells; assay type: cell-based; settings: 1 μM forskolin, 10 min at 37° C.; read-out: IC50, c-AMP stimulated by forskolin, N18TG2 cells
T2 construct: endogenous in cells; host or cells: N18TG2 mouse neuroblastoma cells
Description: The tests were carried out with the aim of checking whether or not the binding of the N-AVAM molecules to the receptor CB1 had any functional significance. […] After incubation, the cells were extracted and the c-AMP levels were evaluated using a suitable kit from Amersham according to the manufacturer's procedure. The data are expressed as IC50, in μM.

T-47D cells = experiment: Proliferation of human breast carcinoma cells, [3H]-thymidine incorporation, T-47D; assay type: cell-based
Description: as §3

MCF-7 cells = experiment: Proliferation of human breast carcinoma cells, [3H]-thymidine incorporation, MCF-7; assay type: cell-based; settings: MCF-7, [3H]-thymidine incorporation
Description: as §3

EFM-19 cells [5] = experiment: Proliferation of human breast carcinoma cells, [3H]-thymidine incorporation, EFM-19; assay type: cell-based; settings: EFM-19, [3H]-thymidine incorporation
Description: as §3

cannabinoid receptor CB1 = target: T3, cannabinoid receptor CB1 (Mus musculus, UniProt P47746); experiment: Binding to cannabinoid receptor CB1, displacement of [3H]SR141716A on N18TG2 cell membranes; settings: 300 pM [3H]SR141716A, 90 min at 30° C., read-out: Ki, CB1 receptor, N18TG2 + cells, [3H]SR141716A ligand
T3 construct: endogenous in cells; host or cells: N18TG2 mouse neuroblastoma cells
Description: as §1, with “The cells were cultured as described previously [L. Faci et al. (1995) Proc. Natl. Acad. Sci. U.S.A., 92: 3376-3380; T. Bisogno et al. (1997) J. Biol. Chem., 272: 3315-3323]. [^3H]SR141716A (55 Ci/mmol) was supplied by Amersham; [^3H]WIN55, 212-2(43 Ci/mmol) was supplied by NEN.” left out
as §2

[6] = Homo sapiens, test compound alone 1.0 μM, control = 100, read-out: Proliferative activity %
[7] = membranes, 300 pM [3H]WIN55,212-2, 90 min at 30° C.

T3 sequence (P47746 whole entry): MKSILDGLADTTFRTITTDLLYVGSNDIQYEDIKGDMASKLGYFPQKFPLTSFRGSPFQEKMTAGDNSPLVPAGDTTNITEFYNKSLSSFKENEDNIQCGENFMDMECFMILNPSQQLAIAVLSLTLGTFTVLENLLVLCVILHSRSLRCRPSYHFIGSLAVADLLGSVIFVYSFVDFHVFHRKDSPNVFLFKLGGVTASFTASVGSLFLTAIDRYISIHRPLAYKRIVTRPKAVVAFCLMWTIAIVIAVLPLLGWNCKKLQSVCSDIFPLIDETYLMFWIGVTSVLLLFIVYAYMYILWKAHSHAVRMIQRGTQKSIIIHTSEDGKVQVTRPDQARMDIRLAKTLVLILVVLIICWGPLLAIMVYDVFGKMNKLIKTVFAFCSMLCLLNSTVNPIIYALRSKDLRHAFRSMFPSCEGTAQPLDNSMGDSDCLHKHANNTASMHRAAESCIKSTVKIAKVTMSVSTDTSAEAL
T2 sequence (P47746 whole entry): as above

| SMILES | Solubility in organic solvents, DMSO ([3]; in DMSO) [mg/mL] | Solubility in organic solvents, ethanol [3] [mg/mL] | Solubility in water [3] | IC50 (receptor CB1) [µM] | Ki (cannabinoid receptor CB2; [7]) [µM] | IC50 (T-47D cells) [µM] | IC50 (MCF-7 cells) [µM] | IC50 (EFM-19 cells [5]) [µM] | Ki (cannabinoid receptor CB1) [µM] | further results |
| --- | --- | --- | --- | --- | --- | --- | --- | --- | --- | --- |
| CCCCCCCCCCCCCCCC(=O)NCCO [N-palmitoylethanolamine, reference compound] | – | – | – | – | – | – | – | – | – | Percentage of variation in the administered weight (hyperalgesia) ([1]; in vivo): 100% and 82% and 80% and 76% and 64% and 66%; Ki (cannabinoid receptor CB2): 0.001 ± 0.0006 µM; activity at 1 µM (EFM-19 cells [2]; [6]): 100%; activity at 2.5 µM (EFM-19 cells [2]; Homo sapiens, test compound alone 2.5 μM, control = 100, read-out: Proliferative activity %): 100%; activity at 5 µM (EFM-19 cells [2]; Homo sapiens, test compound alone 5.0 μM, control = 100, read-out: Proliferative activity %): 100%; activity at 10 µM (EFM-19 cells [2]; Homo sapiens, test compound alone 10 μM, control = 100, read-out: Proliferative activity %): 100% |
| CCCCCCCC/C=C\CCCCCCCC(=O)NCc1ccc(O)c(OC)c1 [Example 1, N-(4-hydroxy-3-methoxybenzyl)oleylamide] | > 10 | > 10 | sparingly soluble | 1.6 | > 15 | 1.6 | 1.6 | 0.7 | 1.64 ± 0.36 | IC50 (DU-145 cells; prolactin 1 mIU/ml): 0.2 to 0.3 µM; Percentage of variation in the volume of the paw relative to carrageenan ([4]; 60 min): 75%; Percentage of variation in the volume of the paw relative to carrageenan ([4]; 120 min): 70%; Percentage of variation in the volume of the paw relative to carrageenan ([4]; 180 min): 65%; Percentage of variation in the administered weight (hyperalgesia) ([1]; 5 mg/kg, oral, 0 min): 100%; Percentage of variation in the administered weight (hyperalgesia) ([1]; 5 mg/kg, oral, 60 min): 80%; Percentage of variation in the administered weight (hyperalgesia) ([1]; 5 mg/kg, oral, 120 min): 72%; Percentage of variation in the administered weight (hyperalgesia) ([1]; 5 mg/kg, oral, 180 min): 65%; Percentage of variation in the administered weight (hyperalgesia) ([1]; 5 mg/kg, oral, 240 min): 58%; Percentage of variation in the administered weight (hyperalgesia) ([1]; 5 mg/kg, oral, 300 min): 64%; Proliferative activity % (EFM-19 cells [2]; test compound alone 1.0 μM): 60% |
| COc1cc(CNC(=O)CCCCCCCC(=O)NCc2ccc(O)c(OC)c2)ccc1O [Example 4, N,N′-bis(4-hydroxy-3-methoxybenzyl)-nonanediamide] | – | – | sparingly soluble | – | – | – | – | – | 1.2 ± 0.28 | solubility ([3]; organic solvent or mixture, in DMSO, read-out: Solubility in organic solvents, DMSO): > 10 mg/mL |
| CCCCCCCCCCCCCCCC(=O)NCc1ccc(O)c(OC)c1 [Example 2, N-(4-hydroxy-3-methoxybenzyl)-palmitoylamide] | > 10 | > 10 | sparingly soluble | 1.8 | > 15 | 0.8 | 2.1 | 1 | 1.75 ± 0.35 | – |
| CCCCC/C=C\C/C=C\C/C=C\C/C=C\CCCC(=O)NCc1ccc(O)c(OC)c1 [Example 3, N-(4-hydroxy-3-methoxybenzyl)-arachidonoylamide] | > 10 | > 10 | sparingly soluble | 1.3 | > 15 | 0.3 | 0.4 | 0.5 | 1.5 ± 0.29 | Proliferative activity % (EFM-19 cells [2]; test compound alone 0.5 μM): 70%; Proliferative activity % (EFM-19 cells [2]; test compound alone 1.0 μM): 43% |
| COc1cc(CNC(=O)CCCC/C=C/C(C)C)ccc1O [Capsaicin, reference compound] | – | – | – | – | – | – | – | – | > 10 | – |
| CCCCC/C=C\C/C=C\C/C=C\C/C=C\CCCC(=O)NCCO [Anandamide, reference compound] | – | – | – | – | – | – | – | – | – | IC50 (DU-145 cells; Homo sapiens, DU-145, prolactin 1 mIU/ml): 0.5 µM; IC50 (T-47D cells; Homo sapiens, T47D): 1.9 µM; IC50 (MCF-7 cells; Homo sapiens, MCF7): 0.5 µM; activity at 1 µM (EFM-19 cells [2]; [6]): 84%; IC50 (EFM-19 cells [5]; Homo sapiens): 1.5 µM |
